Assay results: publication PMC5824344 (ACS Chemical Biology, 2017)
Entries after “also recorded” stand apart in the source; their conditions may differ.

System: HCV (JFH-1) in Huh7.5 cells
Assay: HCV antiviral assay in Huh7.5 cells (infectious titer by TCID50 assay)
Assay type: cell-based, hepatitis C virus
Conditions: MOI 2, 96 h, titration of 4 or 50 µm of 3
Description: Supplemental Figure 3: Antiviral activity of 4 in human hepatoma Huh7.5 cell line.
(A) Huh7.5 cells were infected with DENV (serotype 2, strain 16681, multiplicity of infection = 0.1) and treated with a titration of ToP-DNJ 4 or 50 µm of tocopherol 3 for 48 h. Infectious virus titer was measured by plaque assay on LLC-MK2 cells. Counts were normalized to 100% for untreated samples.
DENV eﬀect at the concentrations tested. (B) Huh7.5 cells were infected with HCV (JFH-1, multiplicity of infection = 2) and treated with a titration of ToP-DNJ 4 or 50 µm tocopherol 3 for 96 h. Infectious virus titer was measured by TCID50 assay on […]
tested. In both panels, each data point represent the mean of triplicates, with error bars showing standard error of the mean (GraphPad Prism). […]
Huh7.5 cells were seeded in a 96-well plate at a density of 5× 10^3 cells/well in 100 µL growth media. […] The supernatant was harvested, and infectious viral titre assessed immediately in the TCID50 assay.
Huh7.5 cells were seeded in a 96-well plate at a density of 2× 10^4 cells/well in 100 µL of growth media and incubated for 18 h. The supernatants to be evaluated were diluted 1:10 in growth media, and 7 serial half-log10 dilutions were subsequently prepared in the same media. […]
each well was scored as either positive (≥ 5 stained cells) or negative. TCID50 values were calculated according to the method of Reed and Muench.8 […]

SMILES: Cc1c(C)c2c(c(C)c1OCCCCCN1CC(O)C(O)C(O)C1CO)CCC(C)(CCCC(C)CCCC(C)CCCC(C)C)O2 (stereo not shown) [Compound 4, 5′-tocopheroxypentyl-DNJ]
- anti-HCV effect (infectious virus titer): neither an anti-DENV nor anti-HCV effect was observed; also recorded: Neither 4 nor 3 showed an anti-HCV eﬀect
